From PubChem BioAssay AID1259375 (The Scripps Research Institute Molecular Screening Center, 2018)
The source made the active and inactive calls. No rule for the calls is given here.

target: Microphthalmia-associated transcription factor (Homo sapiens) (UniProt O75030); assay: MITF inhibitors by FRET titration, dose response, biochemical, high throughput (AID 1259375); conditions: FRET biochemical assay, MITF inhibition;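 also: FRET between CFP-tagged and YFP-tagged MITF protein partners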
Sequence (O75030 whole entry, looked up): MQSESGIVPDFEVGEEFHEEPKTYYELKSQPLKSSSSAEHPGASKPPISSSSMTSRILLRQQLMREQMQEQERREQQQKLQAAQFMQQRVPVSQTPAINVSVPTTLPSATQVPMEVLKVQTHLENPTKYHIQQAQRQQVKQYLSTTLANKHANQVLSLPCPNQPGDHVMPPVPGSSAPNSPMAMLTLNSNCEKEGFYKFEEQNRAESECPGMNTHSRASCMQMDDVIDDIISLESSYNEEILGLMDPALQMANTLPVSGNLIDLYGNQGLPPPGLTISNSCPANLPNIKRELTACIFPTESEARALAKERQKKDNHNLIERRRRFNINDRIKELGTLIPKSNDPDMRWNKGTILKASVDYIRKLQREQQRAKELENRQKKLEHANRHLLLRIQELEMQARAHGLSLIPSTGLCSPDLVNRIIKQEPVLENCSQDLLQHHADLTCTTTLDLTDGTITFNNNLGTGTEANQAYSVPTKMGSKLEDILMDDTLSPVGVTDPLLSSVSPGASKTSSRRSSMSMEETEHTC

SMILES | IC50
O=C(/C=C/c1ccco1)NC(=S)Nc1cc(C(=O)O)ccc1Cl | 3.33 µM
CN(C)/C=C/C=C/C(=O)C1CCC/C(=C\C=C\N(C)C)C1=O (stereo unspecified) | > 6.48 µM (inactive)
O=C(O)CCCNC(=O)/C=C/c1ccco1 | > 6.48 µM (inactive)
Cc1ccc([N+](=O)[O-])cc1S(=O)(=O)Nc1ccc(Nc2ncccc2[N+](=O)[O-])cc1 | > 6.64 µM (inactive)
O=C(O)CSc1cc(Cl)c2nonc2c1[N+](=O)[O-] | 4.2 µM
O=C(CCc1ccco1)Nc1ccc(-c2cn3c4c(nnc3n2)CCCC4)cc1 | > 6.48 µM (inactive)
Cc1nnc(CNC(=O)c2ccc(-n3cccc3)cc2)o1 | > 6.48 µM (inactive)
NCC1OC(=O)C(Oc2ccccc2)=C1Br (stereo unspecified) | > 6.48 µM (inactive)
O=C(O)CCC(NCc1ccco1)C(=O)O (stereo unspecified) | > 6.85 µM (inactive)
C[C@@H]1NC(=O)[C@H]2CN(C(=O)NC3CCCCC3)CCN2C1=O | > 6.48 µM (inactive)
OC[C@H]1OC([S-])[C@H](O)[C@@H](O)[C@@H]1O.[Au+] (stereo partly specified) | > 6.48 µM (inactive)
O=C(O)COc1ccc(-n2cccc2)cc1 | > 6.48 µM (inactive)
COc1cc(OC)c(OC)cc1CN1CCN(Cc2ccc(C)cc2)CC1 | > 5.76 µM (inactive)
COCCCNC(=O)/C(C#N)=C/c1ccc(-c2ccc(C(=O)O)c(Cl)c2)o1 | > 6.48 µM (inactive)
CCC(C)NCCOc1cccc(Br)c1 (stereo unspecified) | > 6.48 µM (inactive)
CCN(CC)c1ccc(C(c2c(C)[nH][nH]c2=O)c2c(C)[nH][nH]c2=O)cc1 | 2.94 µM
C[C@@H](OCc1ccccc1)[C@@H]1NC(=O)[C@H]2CN(C(=O)NC3CCCCC3)CCN2C1=O | > 6.48 µM (inactive)
COc1ccc(C[C@@H]2NC(=O)[C@H]3CN(C(=O)NCc4ccccc4)CCN3C2=O)cc1 | > 6.48 µM (inactive)
CN(C)C(=O)N1CCN(S(=O)(=O)c2cccc([N+](=O)[O-])c2)CC1 | > 6.48 µM (inactive)
COc1nccnc1NS(=O)(=O)c1ccc(NC(=O)c2ccc([N+](=O)[O-])c(C)c2)cc1 | > 6.48 µM (inactive)
O=C(O)CCN(CCC(=O)O)c1ccc(O)cc1 | 2.99 µM

SMILES | IC50
c1ccc(-c2ccc(OCCCCn3cncn3)cc2)cc1 | > 6.48 µM (inactive)
NC(=O)c1ccc(N=Cc2cc3c(cc2[N+](=O)[O-])OCO3)cc1 | 4.37 µM
O=c1c2ccccc2nc(-c2ccccc2)n1-c1ccccc1O | > 6.5 µM (inactive)
CC(C)[C@@H]1NC(=O)[C@H]2CN(C(=O)NCc3ccccc3)CCN2C1=O | > 6.48 µM (inactive)
C/C(=N\Nc1ccc(S(=O)(=O)O)cc1)c1ccc([N+](=O)[O-])o1 | > 6.48 µM (inactive)
CCOC(=O)N1CCC(NC(=O)CCc2nc(C3=CCN(C)CC3)no2)CC1 | > 6.48 µM (inactive)
Cc1cc(C)nc(NS(=O)(=O)c2ccc(N3C(=O)C=CC3=O)cc2)n1 | > 6.48 µM (inactive)
C[C@@H](O)[C@@H]1NC(=O)[C@H]2CN(C(=O)NCc3ccccc3)CCN2C1=O | > 6.48 µM (inactive)
NC(=O)NC(=O)COC(=O)c1c2c(nc3ccccc13)/C(=C\c1ccco1)CCC2 | > 7.04 µM (inactive)
COC(C)(C)CNC(=O)C1CCN(C2CCN(Cc3cccc(C)n3)CC2)CC1 | > 6.48 µM (inactive)
CC(=O)Oc1ccccc1N1C(=O)c2ccc(Oc3cccc(N)c3)cc2C1=O | 2.14 µM
CC(C)(C)c1ccc(OCCn2cncn2)c(Cl)c1 | > 6.48 µM (inactive)
O=C(O)c1ccc(CS(=O)(=O)c2ccccc2)o1 | > 6.48 µM (inactive)
C[C@@H](OCc1ccccc1)[C@@H]1NC(=O)[C@H]2CN(C(=O)Nc3cccc(F)c3)CCN2C1=O | > 6.48 µM (inactive)
O=C(Nc1cc(S(=O)(=O)O)cc2cc(S(=O)(=O)O)cc(O)c12)c1ccccc1 | > 6.48 µM (inactive)
O=C(Nc1ccc(Oc2ccccc2)cc1)c1ccnc(-c2cccs2)c1 | > 6.71 µM (inactive)
O=C(O)c1c2c(nc3ccc(S(=O)(=O)N4CCC(C(=O)O)CC4)cc13)CCC2 | > 6.48 µM (inactive)
COc1ccc2c(c1)CC(C(=O)Nc1ccc(-c3cn[nH]c3)cc1C(=O)N(C)OC)CO2 (stereo unspecified) | > 6.48 µM (inactive)
c1ccc2c(c1)OCC(c1nc3c(-c4ccncc4)cncc3[nH]1)O2 (stereo unspecified) | > 6.48 µM (inactive)
N#CC1=C(N)n2c(s/c(=C\c3ccco3)c2=O)=C(C#N)C1c1ccco1 (stereo unspecified) | > 6.53 µM (inactive)
Cc1ccc(-c2nnc3s/c(=C\c4ccco4)c(=O)n23)cc1 | > 6.48 µM (inactive)

SMILES | IC50
COc1cc(OC)c(CN2CCCC(O)C2)cc1Br (stereo unspecified) | > 6.48 µM (inactive)
COc1cc(CN2CCN(C3CCCC3)CC2)cc(OC)c1OC | > 6.48 µM (inactive)
Cc1ccc(S(=O)(=O)C(CNC(=O)c2ccco2)c2cccs2)cc1 (stereo unspecified) | > 6.56 µM (inactive)
CCOc1ccccc1N1CCN(Cc2cc(OC)c(O)c([N+](=O)[O-])c2)CC1 | > 6.48 µM (inactive)
O=C(O)c1ccc(-n2cccc2)cc1Cl | > 6.48 µM (inactive)
Oc1ccc2c(c1)C1CCCC1(N1CCOCC1)O2 (stereo unspecified) | > 6.48 µM (inactive)
COC(=O)CSc1nnc(-c2ccco2)n1Cc1ccco1 | > 6.48 µM (inactive)
O=C1N[C@@H](CSCc2ccccc2)C(=O)N2CCN(C(=O)NC3CCCCC3)C[C@H]12 | > 6.48 µM (inactive)
Cc1ccc(COc2ccc(/C=N/N=C3\NC(=O)C(CC(=O)O)S3)cc2)cc1 (stereo unspecified) | > 6.48 µM (inactive)
O=C1Nc2c(C(=O)O)cccc2C1=O | > 7.92 µM (inactive)
O=c1[nH]cnc2nc(-c3ccco3)c(-c3ccco3)nc12 | > 7.63 µM (inactive)
NC(=O)/C(=C\c1cccc([N+](=O)[O-])c1)NC(=O)c1ccc(Br)cc1 | > 6.48 µM (inactive)
CC(C)C[C@H]1C(=O)N2CCN(C(=O)NC3CCCCC3)C[C@@H]2C(=O)N1C | > 6.48 µM (inactive)
CC(O)(CNCCN1CCOCC1)COc1ccc(Cl)cc1 (stereo unspecified) | > 6.31 µM (inactive)
CN1CC(=O)N2CCN(C(=O)NC3CCCCC3)C[C@@H]2C1=O | > 6.48 µM (inactive)
CCn1ccnc1CN1CCN(Cc2cccc(OC)c2)C(CCO)C1 (stereo unspecified) | > 6.48 µM (inactive)
CC1CCC(N2CCN(Cc3ccco3)CC2)CC1 (stereo unspecified) | > 6.25 µM (inactive)
C=CCc1cc(Cl)ccc1OCCOCCNCCOC | > 6.48 µM (inactive)
CCN1CCN(CCOCCOc2ccc(F)cc2)CC1 | > 6.48 µM (inactive)
